As a reminder, the AUC is concentration integrated over time.

Molecules are shown by their SMILES.

Here are results for seven molecules from patent US5863913A, “Aromatic compound and pharmaceutical composition” (Kureha Chemical Industry Co., Ltd., priority 1996, dated 1999).

The nature of data set [1]: Oral absorption (amount of compound in rat serum by HPLC, area under curve). The settings on record: single dosage 160 mg/kg in water, 0.5 to 24 hours, average of 3 rats. Type of data set: in vivo, Sprague-Dawley female rats. How it is done: Twelve-week-old Sprague-Dawley female rats (3 rats per group) were bred for acclimation for a week. Then, the compounds of the present invention and a reference substrate were dissolved in water, and orally administered to the rats in a single dosage (160 mg/kg). After 0.5 hour, 1 hour, 2 hours, 4 hours, 6 hours, 8 hours, and 24 hours, the amounts of each compound (ng) per 1 ml of serum were measured using HPLC. Curves were obtained from the relation between an elapsed time after administration and the amount of the compound in serum at each elapsed time, respectively, and an average of the areas under the curves was calculated.
As a reference substance, Compound No. 184 disclosed in Japanese Unexamined Patent Publication (Kokai) No. 8-48651 was used. Compound No. 184 corresponds to the compound of the formula (I) wherein R^1 =nBu, A=N, Z=C, R^2 =CO, R^3 =NC4 H8 O, R^4 =H, R^5 =Me, and R^6 =Me.

The test system of the next data set is ICR female mice. The data set can be described thus: Acute toxicity, single oral dose in mice. The settings on record: mouse, in vivo. The protocol: The aromatic compounds of the formula (I) according to the present invention were orally administered to mice at the dose of 500 mg/kg, but no fatalities were observed over a period of one week.
Five-week-old ICR female mice (5 mice per group) were bred for acclimation for a week. Then, the compounds of the present invention were dissolved in water, and orally administered to the mice in a single dosage (500 mg/kg).

In data set [2] the test system is kidney disease model rats. The data set is described as follows: Action to lower blood pressure in kidney disease model rats (tail cuff). Type of data set: in vivo, Sprague-Dawley female rats. The settings on record: systolic, average of 8 rats, 20 mg/kg with drinking water, two days after administration; control 210.
For data set [3], the system named is kidney disease model rats. The data set can be described thus: Renal function indicatory value in kidney disease model rats. Type of data set: in vivo, Sprague-Dawley female rats. The settings on record: 20 mg/kg/day with drinking water, six weeks; for Creatinine clearance: 24 hours urine, control 0.22; for Creatinine / Blood urea nitrogen: serum; for Creatinine: control 2.0; for Blood urea nitrogen: control 100.

The test system of data set [4] is kidney disease model rats. The data set is described as follows: Survival time of kidney diseased animals. Format: in vivo, Sprague-Dawley female rats. The settings on record: 20 mg/kg/day with drinking water, observation period eight weeks (upper limit); control 5.0.

Turning to `CCCCC(=O)N(Cc1ccc(C(=O)OCCN2CCOCC2)cc1)c1cc(C(=O)N2CCOCC2)ccc1C(C)C` [Compound No. 9, 3-N-[[[4-(2'-morpholinoethoxycarbonyl)phenyl]methyl]valeramido]-i-propylbenzoic acid morpholide], the AUC at 24 h in data set [1] turned out to be 50300 ng·h/mL. Moreover, in the data set with ICR female mice, the “Number of deaths/number of survivals” value is given as 0/5. The “Blood Pressure” value in data set [2] is recorded as 207 mmHg. In addition, in data set [3], the Creatinine clearance came out at 0.31 mL/min, the Creatinine came to 1.6 mg/dL and the Blood urea nitrogen came to 83 mg/dL. Also, in data set [4], the Average survival time amounted to 6.9 weeks.
`CCCCCCC(=O)N(Cc1ccc(C(=O)O)cc1)c1cc(C(=O)N2CCN(CCC)CC2)ccc1N(C)C` [Compound No. 12, 4-dimethylamino-3-N-[[(4-carboxyphenyl)methyl]n-heptanamido]benzoic acid 4'-n-propyl piperazide] had an area under the curve (AUC) at 24 h in data set [1] of 32200 ng·h/mL. Also, the “Number of deaths/number of survivals” value in the data set on ICR female mice is listed as 0/5. The “Blood Pressure” value in data set [2] is 202 mmHg. In data set [3], this molecule yielded a Creatinine clearance of 0.35 mL/min, a Creatinine of 1.3 mg/dL and a Blood urea nitrogen of 80 mg/dL. The molecule also came in with an Average survival time in data set [4] of 7.0 weeks.
With `CCCCCCC(=O)N(Cc1ccc(C(=O)O)cc1)c1cc(C(=O)N2CCN(C)CC2)ccc1N(C)C` [Compound No. 13, 3-[[(4-carboxyohenyl)methyl]n-heptanamido]-4-dimethylaminobenzoic acid 4'-methylpiperazide], the AUC at 24 h in data set [1] turned out to be 1460 ng·h/mL. Also, the “Number of deaths/number of survivals” value in the data set with ICR female mice is 0/5. For the same molecule, the “Blood Pressure” value in data set [2] is 208 mmHg. Further, in data set [3], the Creatinine clearance turned out to be 0.32 mL/min, the Creatinine was found to be 1.5 mg/dL and the Blood urea nitrogen came to 77 mg/dL. Further, the Average survival time in data set [4] came out at 6.9 weeks.
Consider `CCCCC(=O)N(Cc1ccc(C(=O)O)cc1)c1cc(C(=O)N2CCN(C)CC2)ccc1C(C)C` [Compound No. 15, 3-[[(4-carboxyphenyl)methyl]valeramido]-4-i-propylbenzoic acid 4'-methylpiperazide], for which, in data set [1], the exposure (AUC) at 24 h amounted to 5670 ng·h/mL. Moreover, the “Number of deaths/number of survivals” value in the data set on ICR female mice was 0/5. Besides, the “Blood Pressure” value in data set [2] was 200 mmHg. In addition, in data set [3], the Creatinine clearance worked out at 0.26 mL/min, the Creatinine was 1.8 mg/dL and the Blood urea nitrogen stood at 90 mg/dL. In data set [4], this molecule returned an Average survival time of 6.1 weeks.
With `CCCCCCC(=O)N(Cc1ccc(C(=O)O)cc1)c1cc(C(=O)N2CCN(C)CC2)ccc1C(C)C` [Compound No. 18, 3-N-[[(4-carboxyphenyl)methyl]n-heptanamido]-4-i-propylbenzoic acid 4'-methylpiperazide], the exposure (AUC) at 24 h in data set [1] was 12800 ng·h/mL. Moreover, the “Number of deaths/number of survivals” value in the data set on ICR female mice was 0/5. For the same molecule, the “Blood Pressure” value in data set [2] is given as 210 mmHg. Further, in data set [3], the Creatinine clearance stood at 0.32 mL/min, the Creatinine was found to be 1.4 mg/dL and the Blood urea nitrogen was found to be 76 mg/dL. In data set [4], this molecule came in with an Average survival time of 7.0 weeks.
In turn, `CCCCC(=O)N(Cc1ccc(C(=O)O)cc1)c1cc(C(=O)N2CCN(CCC)CC2)ccc1C(C)C` [Compound No. 19, 3-[[(4-carboxyphenyl)methyl]valeramido]-4-i-propylbenzoic acid 4'-n-propylpiperazide] registered an AUC at 24 h in data set [1] of 172000 ng·h/mL. The “Number of deaths/number of survivals” value in the data set on ICR female mice was 0/5. For the same molecule, the “Blood Pressure” value in data set [2] was determined as 194 mmHg. In data set [3], this molecule registered a Creatinine clearance of 0.33 mL/min, a Creatinine of 1.3 mg/dL and a Blood urea nitrogen of 76 mg/dL. In data set [4], the Average survival time is given as 7.2 weeks.
Molecule `CCCCCCC(=O)N(Cc1ccc(C(=O)O)cc1)c1cc(C(=O)N2CCN(CCC)CC2)ccc1C(C)C` [Compound No. 20, 3-N-[[(4-carboxyphenyl)methyl]n-heptanamido]-4-i-propylbenzoic acid 4'-n-propylpiperazide] gave an AUC at 24 h in data set [1] of 183000 ng·h/mL. Also, the “Number of deaths/number of survivals” value in the data set on ICR female mice is listed as 0/5. The “Blood Pressure” value in data set [2] is 209 mmHg. Also, in data set [3], the Creatinine clearance amounted to 0.32 mL/min, the Creatinine stood at 1.3 mg/dL and the Blood urea nitrogen came out at 75 mg/dL. The molecule further gave an Average survival time in data set [4] of 7.3 weeks.
